Target: T1, APJ Receptor (Homo sapiens, UniProt P35414)
T1 sequence (P35414 1-380): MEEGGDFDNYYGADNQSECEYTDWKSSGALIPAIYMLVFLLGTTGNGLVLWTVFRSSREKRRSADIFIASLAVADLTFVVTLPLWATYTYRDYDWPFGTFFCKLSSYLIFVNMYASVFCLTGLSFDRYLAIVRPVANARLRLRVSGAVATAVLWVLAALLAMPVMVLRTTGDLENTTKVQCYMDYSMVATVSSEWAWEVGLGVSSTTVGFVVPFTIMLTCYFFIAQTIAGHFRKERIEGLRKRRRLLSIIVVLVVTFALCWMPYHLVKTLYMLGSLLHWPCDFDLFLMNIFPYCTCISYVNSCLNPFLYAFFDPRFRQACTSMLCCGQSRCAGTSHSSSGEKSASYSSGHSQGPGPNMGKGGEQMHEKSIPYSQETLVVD
Assay: APJ cAMP assay (DiscoverX enzyme fragment complementation; inhibition of forskolin-stimulated cAMP)
Type: cell-based
Conditions: CHO-K1 cell line stably expressing the APJ Receptor; EC80 forskolin; 30 minutes at 37° C.; read-out: Potency Range (APJ cAMP EC50)
Source text: Activation of APJ receptor is known to inhibit forskolin-stimulated cyclic AMP (cAMP) production in cells in a pertussis toxin-sensitive manner which indicates primary coupling to the GαI subunit of the G protein heterotrimeric complex. In addition to signaling through G protein and inhibition of cAMP, APJ receptor activation also results in β-arrestin recruitment, receptor internalization and activation of extracellular-regulated kinases (ERKs).
In order to optimize functional activity directed toward Gi coupling we utilized a CHO-K 1 cell line developed by DiscoverX stably expressing the APJ Receptor. Cells expressing APJR receptor were plated in a 384-well microtiter plates and incubated overnight at 37° C. with 5% CO2 to allow the cells to attach and grow. Media was then aspirated from the cells and replaced with 15 uL 2:1 Hanks Balanced Salt Solution (HBSS)/10 mM Hepes:cAMP XS+Ab reagent. Five microliters (5 uL) of previously generated compound sample stocks at 4× final concentration in assay buffer containing 4× EC80 forskolin were then added to the cells and allowed to incubate at 37° C. for 30 minutes.
After incubation the assay signal was generated using a technology termed enzyme fragment complementation (EFC). In EFC the enzyme B-galactosidase is split into two complementary portions (EA and ED). The fragment ED is fused to cAMP and in the assay format competes with endogenous cAMP for binding to a cAMP specific antibody. Activated B-Gal is formed when exogenous EA fragment binds to free ED-cAMP (not bound to cAMP specific antibody). Activated enzyme levels are detected through conversion of B-gal chemiluminescent substrate which generates a detectable luminescence signal and read on standard microtiter plate.
The methodology for detection of cAMP using EFC requires incubation with 20 uL of cAMP XS+ED/CL lysis cocktail for one hour followed by incubation with 20 uL cAMP XS+EA reagent for three hours at room temperature. Microplates were read following signal generation with a PerkinElmer Envision instrument utilizing chemiluminescent signal detection.
Compound activity was analyzed using CBIS data analysis suite (ChemInnovation, CA). Percentage activity was calculated using the following formula: % Activity=100%×(1−(mean RLU of test sample−mean RLU of Max control)/(mean RLU of vehicle control−mean RLU of Max control))

SMILES	EC50 [µM]
CCOc1cccc(-c2nc3ncc(O)nc3n2-c2c(OC)cccc2C(F)(F)F)n1 [Example 47, 2-(6-ethoxypyridin-2-yl)-1-(2-methoxy-6-(trifluoromethyl)phenyl)-1H-imidazo[4,5-b]pyrazin-6-ol]	0.1 to 10
CCOc1cccc(-c2nc3ncc(NS(C)(=O)=O)nc3n2-c2ncccc2OC)n1 [Example 49, N-(2-(6-ethoxypyridin-2-yl)-1-(3-methoxypyridin-2-yl)-1H-imidazo[4,5-b]pyrazin-6-yl)methanesulfonamide]	0.1 to 10
COc1cccc(-c2nc3ncc(NS(=O)(=O)c4ncccn4)nc3n2-c2c(OC)cccc2OC)n1 [Example 53, N-(1-(2,6-dimethoxyphenyl)-2-(6-methoxypyridin-2-yl)-1H-imidazo[4,5-b]pyrazin-6-yl)pyrimidine-2-sulfonamide]	0.001 to 0.1
COc1cccc(OC)c1-n1c(-c2cccc(OC3CC3)n2)nc2ncc(NS(C)(=O)=O)nc21 [Example 54, N-(2-(6-cyclopropoxypyridin-2-yl)-1-(2,6-dimethoxyphenyl)-1H-imidazo[4,5-b]pyrazin-6-yl)methanesulfonamide]	0.001 to 0.1
COc1cccc(OC)c1-n1c(-c2cccc(OCC(F)(F)F)n2)nc2ncc(NS(C)(=O)=O)nc21 [Example 55, N-(1-(2,6-dimethoxyphenyl)-2-(6-(trifluoroethoxy)pyridin-2-yl)-1H-imidazo[4,5-b]pyrazin-6-yl)methanesulfonamide]	0.001 to 0.1
COc1cccc(OC)c1-n1c(-c2cccc(OC(F)(F)F)n2)nc2ncc(NS(C)(=O)=O)nc21 [Example 56, N-(1-(2,6-dimethoxyphenyl)-2-(6-(trifluoromethoxy)pyridin-2-yl)-1H-imidazo[4,5-b]pyrazin-6-yl)methanesulfonamide]	0.1 to 10
CCOCc1nc2ncc(NS(=O)(=O)c3ccccc3)nc2n1-c1c(OC)cccc1OC [Example 57, N-(1-(2,6-dimethoxyphenyl)-2-(ethoxymethyl)-1H-imidazo[4,5-b]pyrazin-6-yl)benzenesulfonamide]	0.1 to 10
CCOc1cccc(-c2nc3ncc(NS(C)(=O)=O)nc3n2C(CC)CC)n1 [Example 58, N-(2-(6-ethoxypyridin-2-yl)-1-(pentan-3-yl)-1H-imidazo[4,5-b]pyrazin-6-yl)methanesulfonamide]	0.001 to 0.1
CCOc1cccc(-c2nc3ncc(NS(C)(=O)=O)nc3n2C(C)C)n1 [Example 59, N-(2-(6-ethoxypyridin-2-yl)-1-isopropyl-II-1-imidazo[4,5-b]pyrazin-6-yl)methanesulfonamide]	0.1 to 10
CCOc1cccc(-c2nc3ncc(NS(=O)(=O)CCC(C)(C)O)nc3n2-c2c(OC)cccc2OC)n1 [Example 60, N-(1-(2,6-dimethoxyphenyl)-2-(6-ethoxypyridin-2-yl)-1H-imidazo[4,5-b]pyrazin-6-yl)-3-hydroxy-3-methylbutane-1-sulfonamide]	0.001 to 0.1
CCOc1cccc(-c2nc3ncc(NS(=O)(=O)CC4(O)CC4)nc3n2-c2c(OC)cccc2OC)n1 [Example 61, N-(1-(2,6-dimethoxyphenyl)-2-(6-ethoxypyridin-2-yl)-1H-imidazo[4,5-b]pyrazin-6-yl)-1-(1-hydroxycyclopropyl)methanesulfonamide]	0.001 to 0.1
CCOc1cccc(-c2nc3nc(NS(=O)(=O)CC4(O)CC4)cnc3n2-c2c(OC)cccc2OC)n1 [Example 62, N-(1-(2,6-dimethoxyphenyl)-2-(6-ethoxypyridin-2-yl)-1H-imidazo[4,5-b]pyrazin-5-yl)-1-(1-hydroxycyclopropyl)methanesulfonamide]	0.001 to 0.1
CCOc1cccc(-c2nc3ccc(NS(C)(=O)=O)nc3n2-c2c(OC)cccc2OC)n1 [Example 63, N-(3-(2,6-dimethoxyphenyl)-2-(6-ethoxypyridin-2-yl)-3H-imidazo[4,5-b]pyridin-5-yl)methanesulfonamide]	0.001 to 0.1
CCOc1cccc(-c2nc3nc(Cl)c(NS(C)(=O)=O)nc3n2-c2c(OC)cccc2OC)n1 [Example 64, N-(5-chloro-1-(2,6-dimethoxyphenyl)-2-(6-ethoxypyridin-2-yl)-1H-imidazo[4,5-b]pyrazin-6-yl)methanesulfonamide]	0.001 to 0.1

Other lines, results leading:

EC50 [µM]	SMILES
0.001 to 0.1	CCOc1cccc(-c2nc3ncc(NS(=O)(=O)c4ncccn4)nc3n2-c2c(OC)cccc2OC)n1 [Example 41, N-(1-(2,6-dimethoxyphenyl)-2-(6-ethoxypyridin-2-yl)-1H-imidazo[4,5-b]pyrazin-6-yl)pyrimidine-2-sulfonamide]
0.001 to 0.1	CCOc1cccc(-c2nc3ncc(NS(=O)(=O)N4CCC(O)CC4)nc3n2-c2c(OC)cccc2OC)n1 [Example 42, N-(1-(2,6-dimethoxyphenyl)-2-(6-ethoxypyridin-2-yl)-1H-imidazo[4,5-b]pyrazin-6-yl)-4-hydroxypiperidine-1-sulfonamide]
0.001 to 0.1	CCOc1cccc(-c2nc3nc(NS(C)(=O)=O)cnc3n2-c2c(OC)cccc2OC)n1 [Example 43, N-(1-(2,6-dimethoxyphenyl)-2-(6-ethoxypyridin-2-yl)-1H-imidazo[4,5-b]pyrazin-5-yl)methanesulfonamide]
< 0.001	CCOc1cccc(-c2nc3nc(NS(=O)(=O)CCC4CC4)cnc3n2-c2c(OC)cccc2OC)n1 [Example 44]
< 0.001	CCOc1cccc(-c2nc3nc(NS(=O)(=O)CC4CC4)cnc3n2-c2c(OC)cccc2OC)n1 [Example 45, 1-cyclopropyl-N-(1-(2,6-dimethoxyphenyl)-2-(6-ethoxypyridin-2-yl)-1H-imidazo[4,5-b]pyrazin-5-yl)methanesulfonamide]
< 0.001	CCOc1cccc(-c2nc3nc(NCc4ccc(OC)cc4)cnc3n2-c2c(OC)cccc2OC)n1 [Example 46, 1-(2,6-dimethoxyphenyl)-2-(6-ethoxypyridin-2-yl)-N-(4-methoxybenzyl)-1H-imidazo[4,5-b]pyrazin-5-amine]
0.001 to 0.1	CCOc1cccc(-c2nc3ncc(NS(C)(=O)=O)nc3n2-c2c(OC)cccc2C(F)(F)F)n1 [Example 48, N-(2-(6-ethoxypyridin-2-yl)-1-(2-methoxy-6-(trifluoromethyl)phenyl)-1H-imidazo[4,5-b]pyrazin-6-yl)methanesulfonamide]
0.001 to 0.1	CCOc1cccc(-c2nc3ncc(NS(C)(=O)=O)nc3n2-c2c(F)cccc2OC)n1 [Example 50]
0.001 to 0.1	COc1cccc(-c2nc3ncc(NS(C)(=O)=O)nc3n2-c2c(OC)cccc2OC)n1 [Example 51, N-(1-(2,6-dimethoxyphenyl)-2-(6-methoxypyridin-2-yl)-1H-imidazo[4,5-b]pyrazin-6-yl)methanesulfonamide]
0.001 to 0.1	COc1cccc(-c2nc3ncc(NS(=O)(=O)c4ccccn4)nc3n2-c2c(OC)cccc2OC)n1 [Example 52, N-(1-(2,6-dimethoxyphenyl)-2-(6-methoxypyridin-2-yl)-1H-imidazo[4,5-b]pyrazin-6-yl)pyridine-2-sulfonamide]
< 0.001	CCOc1cccc(-c2nc3nc(CC4CC4)c(NS(C)(=O)=O)nc3n2-c2c(OC)cccc2OC)n1 [Example 65, N-(5-(cyclopropylmethyl)-1-(2,6-dimethoxyphenyl)-2-(6-ethoxypyridin-2-yl)-1H-imidazo[4,5-b]pyrazin-6-yl)methanesulfonamide]
< 0.001	CCOc1cccc(-c2nc3nc(CCC4CC4)c(NS(C)(=O)=O)nc3n2-c2c(OC)cccc2OC)n1 [Example 66, N-(5-(2-cyclopropylethyl)-1-(2,6-dimethoxyphenyl)-2-(6-ethoxypyridin-2-yl)-1H-imidazo[4,5-b]pyrazin-6-yl)methanesulfonamide]

Source: patent publication US11944622B2 (Annapurna Bio, Inc., priority 2018, dated 2024)
